Test results from PubChem BioAssay (NCI).
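At the GI50, growth is halved. TGI: total growth inhibition.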

Legend:
Experiment in all cases: NCI tumour cell line growth inhibition, 384-well format
SF-268 CNS = tested on: SF-268 CNS
SW-620 colon = tested on: SW-620 colon
T-47D breast = tested on: T-47D breast
A549 NSCLC = tested on: A549 NSCLC
M14 melanoma = tested on: M14 melanoma
CCRF-CEM leukemia = tested on: CCRF-CEM leukemia
HS 578T breast = tested on: HS 578T breast
786-0 renal = tested on: 786-0 renal
EKVX NSCLC = tested on: EKVX NSCLC
BT-549 breast = tested on: BT-549 breast
RXF 393 renal = tested on: RXF 393 renal
HOP-62 NSCLC = tested on: HOP-62 NSCLC
NCI-H322M lung = tested on: NCI-H322M lung
MOLT-4 leukemia = tested on: MOLT-4 leukemia
HL-60(TB) leukemia = tested on: HL-60(TB) leukemia
UACC-257 melanoma = tested on: UACC-257 melanoma
NCI-H23 lung = tested on: NCI-H23 lung
IGROV1 ovarian = tested on: IGROV1 ovarian
COLO 205 colon = tested on: COLO 205 colon
CAKI-1 renal = tested on: CAKI-1 renal
TK-10 renal = tested on: TK-10 renal
HOP-92 NSCLC = tested on: HOP-92 NSCLC
U251 glioblastoma = tested on: U251 glioblastoma
OVCAR-3 ovarian = tested on: OVCAR-3 ovarian
OVCAR-4 ovarian = tested on: OVCAR-4 ovarian
SR leukemia = tested on: SR leukemia
HCT-116 colon = tested on: HCT-116 colon
OVCAR-5 ovarian = tested on: OVCAR-5 ovarian
MALME-3M melanoma = tested on: MALME-3M melanoma
UACC-62 melanoma = tested on: UACC-62 melanoma
SF-295 CNS = tested on: SF-295 CNS
DU-145 prostate = tested on: DU-145 prostate
SK-MEL-5 melanoma = tested on: SK-MEL-5 melanoma
MDA-MB-435 melanoma = tested on: MDA-MB-435 melanoma
K-562 leukemia = tested on: K-562 leukemia
SK-OV-3 ovarian = tested on: SK-OV-3 ovarian
NCI-H226 lung = tested on: NCI-H226 lung
RPMI-8226 leukemia = tested on: RPMI-8226 leukemia
HT29 colon = tested on: HT29 colon
NCI/ADR-RES ovarian = tested on: NCI/ADR-RES ovarian
SF-539 CNS = tested on: SF-539 CNS
OVCAR-8 ovarian = tested on: OVCAR-8 ovarian
HCC-2998 colon = tested on: HCC-2998 colon
ACHN renal = tested on: ACHN renal
SNB-75 CNS = tested on: SNB-75 CNS
SN12C renal = tested on: SN12C renal
SK-MEL-2 melanoma = tested on: SK-MEL-2 melanoma

COC1(C(=O)N2Cc3nc(Cl)nc(N[C@H](C)c4cc(N)cc(C(F)(F)F)c4)c3C2)CCOCC1
GI50 (SF-268 CNS): 17.2 µM | TGI (SF-268 CNS): 34.8 µM | GI50 (SW-620 colon): 17.9 µM | TGI (SW-620 colon): 40.2 µM | GI50 (T-47D breast): 12.4 µM | TGI (T-47D breast): 32.5 µM | GI50 (A549 NSCLC): 24.5 µM | TGI (A549 NSCLC): > 100 µM | GI50 (M14 melanoma): 17.5 µM | TGI (M14 melanoma): 32.3 µM | GI50 (CCRF-CEM leukemia): 15.5 µM | TGI (CCRF-CEM leukemia): 29.1 µM | GI50 (HS 578T breast): 12.6 µM | TGI (HS 578T breast): 25.7 µM | GI50 ([…]-0 renal): 16.5 µM | TGI (786-0 renal): 33.2 µM | GI50 (EKVX NSCLC): 12.8 µM | TGI (EKVX NSCLC): 38.8 µM | GI50 (BT-549 breast): 14.5 µM | TGI (BT-549 breast): 28 µM | GI50 (RXF 393 renal): 13.8 µM | TGI (RXF 393 renal): 27.4 µM | GI50 (HOP-62 NSCLC): 15.6 µM | TGI (HOP-62 NSCLC): 29.3 µM | GI50 (NCI-H322M lung): 13.5 µM | TGI (NCI-H322M lung): 43.2 µM | GI50 (MOLT-4 leukemia): 8.48 µM | TGI (MOLT-4 leukemia): 21 µM | GI50 (HL-60(TB) leukemia): 16.2 µM | TGI (HL-60(TB) leukemia): 29.8 µM | GI50 (UACC-257 melanoma): 18.3 µM | TGI (UACC-257 melanoma): 33.3 µM | GI50 (NCI-H23 lung): 14.2 µM | TGI (NCI-H23 lung): 38.6 µM | GI50 (IGROV1 ovarian): 16.1 µM | TGI (IGROV1 ovarian): 33.6 µM | GI50 (COLO 205 colon): 24 µM | TGI (COLO 205 colon): 56.9 µM | GI50 (CAKI-1 renal): 6.99 µM | TGI (CAKI-1 renal): 35.4 µM | GI50 (TK-10 renal): 14.9 µM | TGI (TK-10 renal): 35.3 µM | GI50 (HOP-92 NSCLC): 0.646 µM | TGI (HOP-92 NSCLC): 18.6 µM | GI50 (U251 glioblastoma): 15.1 µM | TGI (U251 glioblastoma): 29.7 µM | GI50 (OVCAR-3 ovarian): 13.1 µM | TGI (OVCAR-3 ovarian): 26.2 µM | GI50 (OVCAR-4 ovarian): 15.6 µM | TGI (OVCAR-4 ovarian): 43.8 µM | GI50 (SR leukemia): 10.5 µM | TGI (SR leukemia): 22.4 µM | GI50 (HCT-116 colon): 16.3 µM | TGI (HCT-116 colon): 31.2 µM | GI50 (OVCAR-5 ovarian): 23.2 µM | TGI (OVCAR-5 ovarian): 75 µM | GI50 (MALME-3M melanoma): 16.2 µM | TGI (MALME-3M melanoma): 34.3 µM | GI50 (UACC-62 melanoma): 15.6 µM | TGI (UACC-62 melanoma): 29.1 µM | GI50 (SF-295 CNS): 15.1 µM | TGI (SF-295 CNS): 32.5 µM | GI50 (DU-145 prostate): 19.9 µM | TGI (DU-145 prostate): 50.9 µM | GI50 (SK-MEL-5 melanoma): 15 µM | TGI (SK-MEL-5 melanoma): 28.4 µM | GI50 (MDA-MB-435 melanoma): 17.9 µM | TGI (MDA-MB-435 melanoma): 36.9 µM | GI50 (K-562 leukemia): 0.152 µM | TGI (K-562 leukemia): 15 µM | GI50 (SK-OV-3 ovarian): 18.9 µM | TGI (SK-OV-3 ovarian): 40.3 µM | GI50 (NCI-H226 lung): 13.4 µM | TGI (NCI-H226 lung): 31 µM | GI50 (RPMI-8226 leukemia): 10.6 µM | TGI (RPMI-8226 leukemia): 22.5 µM | GI50 (HT29 colon): 18.2 µM | TGI (HT29 colon): 35.9 µM | GI50 (NCI/ADR-RES ovarian): 17.5 µM | TGI (NCI/ADR-RES ovarian): 51.8 µM | GI50 (SF-539 CNS): 15.3 µM | TGI (SF-539 CNS): 28.7 µM | GI50 (OVCAR-8 ovarian): 18.4 µM | TGI (OVCAR-8 ovarian): 46.1 µM | GI50 (HCC-2998 colon): 15.4 µM | TGI (HCC-2998 colon): 30.3 µM | GI50 (ACHN renal): 20.4 µM | TGI (ACHN renal): 67 µM | GI50 (SNB-75 CNS): 10.7 µM | TGI (SNB-75 CNS): 23.5 µM | GI50 (SN12C renal): 10.1 µM | TGI (SN12C renal): 25.3 µM | GI50 (SK-MEL-2 melanoma): 16.9 µM | TGI (SK-MEL-2 melanoma): 31.1 µM
